Assay results published in patent publication US12263248B2, “Compounds and compositions for intracellular delivery of therapeutic agents” (ModernaTX, Inc., priority 2018, dated 2025).
“Also recorded” adds a separate entry of the source.

Columns and labels:
luciferase (Luc) mRNA [1] = experiment: Luc expression (total flux) after intramuscular administration; type: in vivo, mice; settings: for Total flux, 0.001 mpk Dose / Total flux, 0.01 mpk Dose / Total flux (p/s) 0.01 mpk Dose: 6 hours after intramuscular administration; for Fold increase in Luc expression relative to MC3, Intramuscular (0.001 mpk dose) / Fold increase in Luc expression relative to MC3, Intramuscular (0.01 mpk dose) / Novel lipid/MC3 expression ratio, 6 hr. time point, i.m. Luc: intramuscular; for Novel lipid/MC3 expression ratio, 6 hr. time point, i.m. Luc: relative to MC3 formulation; for Total flux (p/s) 0.01 mpk Dose: Table 5B
Outline: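 Mice given a single intramuscular dose of lipid nanoparticle formulations carrying modified Luc mRNA, alone or with H10 mRNA, at 0.001 or 0.01 mpk total. Luciferase expression recorded as total flux.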

[2] = Particle size and polydispersity index of nanoparticle compositions (Zetasizer Nano ZS); type: physicochemical; settings: for PDI (Polydispersity index): lipid nanoparticle, ±SD within one assay run (Table 37)
Outline: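 Particle size and PDI were measured on a Zetasizer Nano ZS with the nanoparticle compositions dispersed in 1×PBS.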

[3] = Encapsulation efficiency of RNA (QUANT-IT RIBOGREEN RNA assay); type: physicochemical; settings: for % EE: compositions for subcutaneous administration; for % Encapsulation: lipid nanoparticle, ±SD within one assay run (Table 37)
Outline: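 RiboGreen fluorescence (ex ~480, em ~520 nm) compared between intact samples and Triton X-100-lysed samples after 15 min at 37 °C in TE buffer, pH 7.5. Percent free RNA is the blank-corrected intact/disrupted ratio.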

luciferase (Luc) mRNA [4] = experiment: Luc expression in liver, lung, spleen and femur 6 hours after intravenous administration; type: in vivo; settings: mice, 0.5 mpk; for Total Flux Femur / Total Flux Liver / Total Flux Lung / Total Flux Spleen: intravenous
Outline: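 LNP-formulated mRNA given IV to mice (n=3) at 0.5 mpk; at 6 h, bioluminescence imaged ex vivo 15 min after IP D-luciferin (15 mg/mL, 200 μL), organs imaged within 25 min. Values are total flux by region of interest.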

IL-6, IP-10 = experiment: Cytokine induction in mice upon intravenous administration; type: in vivo; set-up: Cytokine induction IL-6 / Cytokine induction IP-10: unit not given here; settings: 0.5 mpk, 6 hours; for Cytokine induction IL-6 / Cytokine induction IP-10: intravenous
Outline: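 Mice dosed intravenously with nanoparticle compositions at 0.5 mpk; serum cytokine concentrations (IL-6, IP-10) measured at 6 hours. MC3 formulation and PBS controls run alongside.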

[5] = 0.01 mpk, Luc mRNA and H10 mRNA
[6] = Table 1A, lipid:DSPC:cholesterol:PEG-DMG 50:10:38.5:1.5 mol %
[7] = Table 1E, compositions for subcutaneous administration
[8] = Table 1C, compositions for subcutaneous administration
[9] = lipid:DSPC:Chol:PEG-DMG (50:10:38.5:1.5), hEPO mRNA
[10] = Table 1B, formulated with hEPO mRNA

| PDI [2, 8] | Size (nm) [2, 8] [nm] | % EE ([3]; Table 1C) [%] | PDI [2, 10] | Size (nm) [2, 10] [nm] | EE (%) [3, 10] [%] | SMILES | Total flux, 0.001 mpk Dose (luciferase (Luc) mRNA [1]; Luc mRNA and H10 mRNA) [p/s] | Total flux, 0.01 mpk Dose (luciferase (Luc) mRNA [1]; [5]) [p/s] | PDI ([2]; Table 1A) | Size (nm) [2, 6] [nm] | EE (%) ([3]; Table 1A) | Total Flux Femur (luciferase (Luc) mRNA [4]) | Total Flux Liver (luciferase (Luc) mRNA [4]) | Total Flux Lung (luciferase (Luc) mRNA [4]) | Total Flux Spleen (luciferase (Luc) mRNA [4]) | Cytokine induction IL-6 (IL-6, IP-10) | Cytokine induction IP-10 (IL-6, IP-10) | Novel lipid/MC3 expression ratio, 6 hr. time point, i.m. Luc (luciferase (Luc) mRNA [1]) | Total flux (p/s) 0.01 mpk Dose (luciferase (Luc) mRNA [1]; 0.01 mpk) [p/s] | further results |
| --- | --- | --- | --- | --- | --- | --- | --- | --- | --- | --- | --- | --- | --- | --- | --- | --- | --- | --- | --- | --- |
|  |  |  |  |  |  | CCCCCCCCCN(CCO)CCCCCCCC(=O)OC(CCCCCCCC)CCCCCCCC [Compound 3, Heptadecan-9-yl 8-((2-hydroxyethyl)(nonyl)amino)octanoate] | 3.58E+06 | 4.95E+07 | 0.20 | 97.5 | 92.25 | 7.36E+06 | 1.39E+10 | 4.76E+07 | 1.47E+08 | 282.88 | 2052.87 |  |  | Fold increase in Luc expression relative to MC3, Intramuscular (0.001 mpk dose) (luciferase (Luc) mRNA [1]): 0.51; Fold increase in Luc expression relative to MC3, Intramuscular (0.01 mpk dose) (luciferase (Luc) mRNA [1]; 0.01 mpk): 1.13; Flux in the liver (luciferase (Luc) mRNA [4]; i.v., in words): highest; IL-6 induction (IL-6, IP-10; i.v., in words): highest; IP-10 induction (IL-6, IP-10; i.v., in words): highest |
|  |  |  |  |  |  | CCCCCCCCCOC(=O)CCCCCCCN(CCO)CCCCCCCCCC(=O)OC(CCCCCCCC)CCCCCCCC [Compound 23, Heptadecan-9-yl 10-((2-hydroxyethyl)(8-(nonyloxy)-8-oxooctyl)amino) decanoate] | 8.27E+06 | 2.20E+06 | 0.09 | 104.5 | 92.68 | 1.19E+06 | 2.92E+08 | 1.82E+06 | 3.08E+07 | 94.00 | 1015.95 |  |  | PDI [2, 7]: 0.13; Size (nm) [2, 7]: 70.5 nm; % EE ([3]; Table 1E): 98% |
|  |  |  |  |  |  | CCCCCCCCCOC(=O)CCCCCCCN(CCO)CCCCCC(=O)OC(CCCCCCCC)CCCCCCCC [Compound 27, Nonyl 8-((6-(heptadecan-9-yloxy)-6-oxohexyl)(2-hydroxyethyl)amino) octanoate] | 2.55E+06 | 3.17E+07 | 0.18 | 82.3 | 94.27 | 2.00E+06 | 2.16E+09 | 6.35E+06 | 3.78E+06 | 161.07 | 345.56 |  |  |  |
|  |  |  |  |  |  | CCCCC/C=C\C/C=C\CCCCCCCCN(CCO)CCCCCCCC(=O)OC(CCCCCCCC)CCCCCCCC [Compound 6, Heptadecan-9-yl 8-((2-hydroxyethyl)((9Z,12Z)-octadeca-9,12-dien-1-yl)amino)octanoate] |  |  | 0.066 | 73.1 | 97.60 | 2.15E+06 | 1.09E+09 | 4.30E+06 | 3.03E+07 | 136.18 | 316.01 |  |  | PDI (Polydispersity index) [2]: 0.07 ± 0.05; PDI [2, 9]: 0.082; % Encapsulation [3]: 97.6 ± 1.2%; EE [3, 9]: 97.84% |
|  |  |  |  |  |  | CCCCC/C=C\C/C=C\CCCCCCCCN(CCO)CCCCCCCC(=O)OCCCCCCCCC [Compound 136, Nonyl 8-((2-hydroxyethyl)((9Z,12Z)-octadeca-9,12-dien-1-yl)amino)octanoate] |  |  | 0.5 | 140.4 | 90.9 | 6.60E+05 | 1.34E+08 | 8.91E+05 | 2.77E+07 | 28.69 | 887.91 |  |  | PDI (Polydispersity index) [2]: 0.11 ± 0.05; % Encapsulation [3]: 90.9 ± 0.9% |
|  |  |  | 0.22 | 89.6 | 95.38 | CCCCCCCCCOC(=O)CCCCCCCN(CCCCCCCC(=O)OC(CCCCCCCC)CCCCCCCC)CCCNC(C)=O [Compound 108, Heptadecan-9-yl 8-((3-acetamidopropyl)(8-(nonyloxy)-8-oxooctyl)amino)octanoate] |  |  | 0.14 | 119 | 96 |  | 4.63E+08 | 9.81E+06 | 7.82E+08 |  |  | 14.2 | 4.60E+08 | Luc expression upon intramuscular administration (luciferase (Luc) mRNA [1]; 0.01 mpk, in words): highest expression; i.m. Lipid/MC3 0.01 mpk, Luc, 6 h (luciferase (Luc) mRNA [1]; Table 3B, i.m., 0.01 mpk, 6 h): 14.2; flux measured at 6 h relative to the MC3 formulation (luciferase (Luc) mRNA [1]; intramuscular administration (i.m.), in words): fourteen; PDI [2, 7]: 0.15; Size (nm) [2, 7]: 96.1 nm; % EE ([3]; Table 1E): 96%; Flux in the spleen (luciferase (Luc) mRNA [4]; i.v., in words): highest |
| 0.21 | 91.5 | 91.9 | 0.24 | 73.3 | 92.39 | CCCCCCCCCOC(=O)CCCCCCCN(CCCCCCCC(=O)OC(CCCCCCCC)CCCCCCCC)CCCNC(=O)N(C)C [Compound 110, Heptadecan-9-yl 8-((3-(3,3-dimethylureido)propyl)(8-(nonyloxy)-8-oxooctyl)amino)octanoate] |  |  | 0.21 | 91.5 | 91.9 |  | 2.30E+08 | 5.76E+06 | 1.41E+08 |  |  | 3.74 | 1.21E+08 |  |
| 0.22 | 83.7 | 99.0 | 0.21 | 60.6 | 96.40 | CCCCCCCCCOC(=O)CCCCCCCN(CCCCCCCC(=O)OC(CCCCCCCC)CCCCCCCC)CCCNC(=O)NC [Compound 112, Heptadecan-9-yl 8-((3-(3-methylureido)propyl)(8-(nonyloxy)-8-oxooctyl)amino)octanoate] |  |  | 0.22 | 83.7 | 99.0 |  | 1.48E+08 | 1.83E+06 | 2.75E+07 |  |  | 2.93 | 9.47E+07 |  |

| SMILES | PDI [2, 8] | Size (nm) [2, 8] [nm] | % EE ([3]; Table 1C) [%] | PDI [2, 10] | Size (nm) [2, 10] [nm] | EE (%) [3, 10] [%] | Total flux, 0.001 mpk Dose (luciferase (Luc) mRNA [1]; Luc mRNA and H10 mRNA) [p/s] | Total flux, 0.01 mpk Dose (luciferase (Luc) mRNA [1]; [5]) [p/s] | PDI ([2]; Table 1A) | Size (nm) [2, 6] [nm] | EE (%) ([3]; Table 1A) | Total Flux Femur (luciferase (Luc) mRNA [4]) | Total Flux Liver (luciferase (Luc) mRNA [4]) | Total Flux Lung (luciferase (Luc) mRNA [4]) | Total Flux Spleen (luciferase (Luc) mRNA [4]) | Cytokine induction IL-6 (IL-6, IP-10) | Cytokine induction IP-10 (IL-6, IP-10) | Novel lipid/MC3 expression ratio, 6 hr. time point, i.m. Luc (luciferase (Luc) mRNA [1]) | Total flux (p/s) 0.01 mpk Dose (luciferase (Luc) mRNA [1]; 0.01 mpk) [p/s] | further results |
| --- | --- | --- | --- | --- | --- | --- | --- | --- | --- | --- | --- | --- | --- | --- | --- | --- | --- | --- | --- | --- |
| CCCCCCCCCOC(=O)CCCCCCCN(CCCCO)CCCCCCCC(=O)OC(CCCCCCCC)CCCCCCCC [Compound 20, Heptadecan-9-yl 8-((4-hydroxybutyl)(8-(nonyloxy)-8-oxooctyl)amino) octanoate] | 0.13 | 86.7 | 91.6 |  |  |  | 2.59E+07 |  | 0.13 | 86.7 | 96.72 | 1.31E+07 | 1.84E+09 | 2.66E+07 | 1.43E+08 | 126.83 | 2468.24 | 2.21 |  | Luc expression upon intramuscular administration (luciferase (Luc) mRNA [1]; Luc mRNA and H10 mRNA, doses of 0.001 and 0.01 mpk, in words): highest expression at both dose levels; also recorded: equivalent expression to the high dose of MC3; fold increase in Luc expression over MC3 formulations (luciferase (Luc) mRNA [1]; intramuscular administration, in words): highest fold increase; Fold increase in Luc expression relative to MC3, Intramuscular (0.001 mpk dose) (luciferase (Luc) mRNA [1]): 3.70; Fold increase in Luc expression relative to MC3, Intramuscular (0.01 mpk dose) (luciferase (Luc) mRNA [1]; 0.01 mpk): 2.21; IP-10 induction (IL-6, IP-10; i.v., in words): highest |
